# What was measured:
# C-26 cells = assay type: cell-based; details: cell lines of Table 1
# Procedure: A human ovarian carcinoma cell line (OV-1063), established at the Hadassah University hospital and human colon carcinoma cell line (C-26) were maintained in RPMI-1640 medium supplemented with 10% FCS, antibiotics and glutamine. All culture medium components were purchased from Biological Industries (Beit-HaEmek, Israel). Both cell lines were maintained at 37° C. in a water-jacketed CO2 incubator.
# Cytotoxicity of the synthesized complexes was tested by the methylene blue (MB) staining assay^(19). A fixed number of exponentially growing cells in 200 μl medium were plated in 96-microwell, flat-bottomed plates. For each of the complexes tested, 4 well were used. Following 24 hr in culture, 20 μl of different concentration of the complexes were added to each well containing untreated cells. Normal saline was added to the controls. Cells were exposed to complexes for 4, 24, or 72 hr. At the end of exposure for a fixed time interval, the treated cells as well as parallel control cells were washed and incubation was continued in fresh medium until termination of the experiment. Following 72 hr of growth, cells were fixed by adding 50 μl of 2.5% of glutaraldehyde to each well for 15 min. Fixed cells were rinsed 10 times with fresh de-ionized water and once with borate buffer (0.1 M, pH=8.5), dried and stained with MB (100 μl of 1% solution in 0.1 M borate buffer, pH=8.5) for 1 hr at room temperature. Stained cells were rinsed thoroughly with de-ionized water to remove any non-cell-bound die and then dried. The MB bound to the fixed cells was extracted by incubation at 37° C. with 200 μl of 0.1N HCl for 1 hr, and the net optical density (OD) of the die in each well was determined by a plate spectrophotometer (Labsystems Multyskan BICHROMATIC, Finland) at 620 nm.
# calf thymus DNA = experiment: DNA binding (calf thymus DNA platination)
# Procedure: The formation of calf thymus DNA platination was also examined. To this end, calf thymus DNA was incubated with different compounds (Table 3) in which the following parameters were determined: […]
# caspase-3 in C-26 cells = experiment: EnzChek Caspase-3 assay; assay type: cell-based, human; details: 4.5 μM complex, cisplatin 1.5 μM, 5 or 16 hrs
# From the text: (§1) (2) By the EnzChektm Caspase-3 Assay Kit (Molecular probes, Eugene, Oreg.). This Kit allows the detection of apoptosis by assaying for increases in caspase-3 and other DEVD-specific protease activities (e.g., caspase-7). The basis for the assay is rodamine 110 bis-(N-CBZ-aspartil-L-glutarnyl-L-valyl-aspartic acid amide) (Z-DEVD-R110). This substrate is a bisamide derivative of rhodamine 110(R110) containing DEVD peptides covalently linked to each of R110's amino groups. Upon enzymatic cleavage, the non-fluorescent bisamide substrate converted to the fluorescent R110, which can be quantified by fluorescence microplate reader using excitation at 485±10 nm and emission detection at 535±10 nm.
# (§2) (12) (5 μM and 7.5 μM, respectively) for 5 or 16 hr. Both “induced” and “control” cells were then harvested and lysed. Enzyme reactions were performed in 96-well plates with 50 μg of cytosolic proteins (55 minutes of incubation) and with a final concentration of 25 μM Z-DEVD-R110 substrate as described in the kit protocol.
# [1] = test system: caspase-3 in OV-1063 cells; experiment: EnzChek Caspase-3 assay; assay type: cell-based, human
# From the text: as §1, §2
compound,measurement,setting,value
"C1CCNCC1.Cc1ccncc1.[Cl][Pt][Cl] [Complex 5, trans-[PtCl2(4-picoline)(piperidine)]]",folds less active than cisplatin,C-26 cells,3 folds
same,"% IEC/adduct, frequency of interstrand crosslinks",calf thymus DNA,2%
same,unwinding angle per adduct,calf thymus DNA,11°
same,t1/2 half time of the binding to calf thymus DNA,"calf thymus DNA; 10 mM NaClO4, 37° C., ri = 0.08, differential pulse polarography",4.33 h
same,"ΔTm, 0.01M Na+","calf thymus DNA; rb = 0.05, 0.01M Na+",+5.5 0.C
same,"ΔTm, 0.2 M","calf thymus DNA; rb = 0.05, 0.2 M",+0.5 0.C
same,"ΔΔεmax, maximum of the positive CD band at around 275 nm","calf thymus DNA; rb = 0.05, difference between control and platinated DNA",0.04
same,caspase-3 fluorescent signal,caspase-3 in C-26 cells,no fluorescent signal
same,"caspase-3 activation, increase in fluorescence vs untreated cells","[1]; 5 hr, 6.5 μM piperidine complex or 7.5 μM piperazine complex",~2 fold
same,"caspase-3 activation, increase in fluorescence vs untreated cells",[1]; 16 hr,3 fold

# Source: patent publication US7122668B2, “Platinum complexes and their use in therapy” (priority 2002, dated 2006)
